Measurements from article PMC11788822, “Uncovering the potent antimicrobial activity of squaramide based anionophores – chloride transport and membrane disruption” (Chemical Science, 2025).
Like-named read-outs stand apart in the source and are kept apart here.

Assays:
[1] = tested on: methicillin-resistant S. aureus (MRSA); test: Growth inhibition assay, MRSA; assay type: cell-based, Staphylococcus aureus; conditions: 24 h
Method: To determine IC50/80 values, growth (optical density) of S. aureus, methicillin-resistant S. aureus (MRSA), P. aeruginosa, and K. pneumoniae when treated with a range of concentrations of each active compound in vitro was measured at 600 nm after a 24 h incubation period at 37 °C. Each compound was studied for activity below […], and those showing little activity above 200 μM, were noted as such, and omitted from further study.
Staphylococcus aureus culture conditions […]
Methicillin-resistant Staphylococcus aureus culture conditions
Methicillin-resistant S. aureus (clinical isolate – St. James’ University Hospital, Dublin) was cultured at 37 °C in Nutrient broth (Oxoid), containing 25 µg/mL Ampicillin in an orbital shaker at 200 rpm. Stocks were kept on nutrient agar containing 25 µg/mL Ampicillin, stored at 4 °C for up to 2 months, or as glycerol stocks (50/50 glycerol:culture), stored at -70 °C indefinitely. […]
Bacterial cultures were brought to early stationary phase overnight, in nutrient broth (containing 25/50 µg/mL Ampicillin for MRSA/K. pneumoniae, respectively) at 37 °C. Cultures were diluted to an OD600 = 0.01. Aliquots of Culture (100 µl) were added to 100 µL serially diluted compound (200 – 0.78 µM) in nutrient broth in a 96-well plate (Sarstedt, Germany).
Plates were incubated at 37 °C for 24 h and growth was measured at 600 nm, where growth was measured and represented relative to control. […]

[2] = tested on: S. aureus; test: Modified MTT assay of cellular respiration; assay type: cell-based, Staphylococcus aureus; conditions: HBSS, Cl− free HBSS or Na+ free HBSS buffer, 5 h treatment
Text: To further probe the relationship between anion homeostasis and antimicrobial effect, a modified MTT assay was used next to monitor disruption of cellular respiration in the presence of 1, 2, or 4 either with abundant Cl^− and Na^+, in the absence of Cl^−, or in the absence of Na^+ (Fig. 3). […] Chew and co-workers have reported on the behaviours, and dynamics of adamantylamines in the lipid bilayers, and discussed that adamantylamines show a preferential accumulation in the interfacial layer of lipid bilayers[46] and thus we suspected that these compounds, with an identical pharmacophore may behave in a similar manner accumulating in lipid bilayers of bacterial membranes.[47,48] […]
(§1) or measured over the course of 2 hrs, starting at T0 (upon addition of compound).
(§2) Alternatively, 200 µL aliquots of cell suspension were added to a 96-well plate, to the desired quantity, and were either untreated (control), or treated with the compound of interest for 5 mins, whereafter fluorescence was read using a BMG Labtech Clariostar Plus platereader, and plotted relative to control.
From an overnight culture of S. aureus brought to stationary phase (OD600 = ~1.0), was taken samples which were diluted to an OD600 = ~0.2 in either Hank’s buffered salt solution, Cl- free HBSS buffer, or Na+ free buffer. Samples were treated with the respective compound for 5 h at 37 0C. Subsequently, Cell densities for each of the samples were standardised to an OD600 = 0.15, in the relevant buffer system. To each sample was added Triphenyl Tetrazolium Chloride (TTC), to a final concentration of 0.5 mg/mL. 100 µL of each sample was placed into the wells of a 96-well place in 8 replicates. Samples were incubated at 37 0C for 18 h, and subsequently supernatant was removed from each well, taking care as to not disturb the Formazan precipitate. To each well was then added 100 µL DMSO, with repeated pipetting to solubilise precipitate. Samples were read using a microplate reader at 550 nm & plotted as percentage cell viability relative to control. […]

[3] = tested on: S. aureus cells; test: MQAE chloride influx assay; assay type: cell-based, Staphylococcus aureus; conditions: 5 min, MQAE fluorescence fitted to Stern–Volmer equation
Method: To study this, we utilised N-(ethoxycarbonylmethyl)-6-methoxyquinolinium bromide (MQAE) as a fluorescent reporter for cellular Cl^− levels. MQAE fluorescence is highly sensitive to Cl^− flux, where increased cytosolic Cl^− concentration gives rise to a collisional quenching effect. […] To do this, cells were pre-treated with MQAE and then exposed to varying concentrations of 1, 2 and 4, whereafter MQAE fluorescence was read at T = 5 min, and plotted relative to control (Fig. 3).
Furthermore, using the fluorescence data acquired from these assays, and fitting to the Stern–Volmer equation, we could approximate the increased concentration of Cl^− with respect to basal fluorescence for each of the concentrations studied (Table 3). […]
MQAE chloride influx assay
From an overnight culture brought to stationary phase (OD600 = ~1.0) was taken samples, brought to an OD600 = 0.2, which were treated with N-Ethoxycarbonylmethyl-6-methoxyquinolium Bromide (MQAE) (10 mM) for 1 h at 37 0C. Subsequently, cells were washed with & resuspended in PBS. 2 mL of samples were taken & transferred to a fluorescence cuvette, whereupon fluorescence was read (λexc = 350 nm (slit width = 5 nm) λem = 460 nm (slit width = 5 nm)) using a Cary Eclipse Fluorescence Spectrophotometer (Agilent Technologies). Subsequently samples were treated with the Compound of interest for 5 mins whereafter fluorescence was measured as previous, with intensity plotted relative to control, […]
as §1
as §2, with “control. […]” for “control.”
Subsequently, cells were resuspended in 1 mL PBS, and treated with a the respective fluorophore or compound of interest at the specified concentration or […]

[4] = tested on: panel of Gram-positive and -negative pathogens; test: Zone of inhibition assay; assay type: cell-based; conditions: 5 μL of 1 mM stock on nutrient agar, 37 °C, 24 h; radius ≤ 2 mm deemed not active
Method: To do this, a zone of inhibition assay was used as a qualitative measure of activity. To do so, 5 μL of a 1 mM stock of the respective compound was pipetted atop nutrient agar which was previously spread with a panel of Gram-positive and -negative pathogens of interest. Following incubation at 37 °C for 24 h, zones of inhibition were measured and recorded for each compound. Zones with a radius ≤ 2 mm were deemed as not active, and thus eliminated from further study.

[5] = Staphylococcus aureus, MRSA, read-out: MRSA IC50, growth (OD 600 nm) relative to control, 24 h, 37 °C
[6] = Staphylococcus aureus, MRSA, read-out: MRSA IC80, growth (OD 600 nm) relative to control, 24 h, 37 °C

Structure (SMILES)	IC50 [1, 5]	IC80 [1, 6]	IC50 ([1]; read-out: MRSA IC50, growth (OD 600 nm) relative to control, 37 °C)	effect on cellular respiration (MTT) [2]	Increase in chloride concentration from basal level [Clθ] (mM) ([3]; 10 μM compound)	Increase in chloride concentration from basal level [Clθ] (mM) ([3]; 50 μM compound)	Increase in chloride concentration from basal level [Clθ] (mM) ([3]; 100 μM compound)	Increase in chloride concentration from basal level [Clθ] (mM) ([3]; 200 μM compound)	zone of inhibition, qualitative measure of activity [4]	MRSA IC80 ([1]; growth (OD 600 nm) relative to control, 37 °C)	IC80 ([1]; read-out: MRSA IC80, growth (OD 600 nm) relative to control, 37 °C)
O=c1c(Nc2cc(C(F)(F)F)cc(C(F)(F)F)c2)c(NC23CC4CC(CC(C4)C2)C3)c1=O [Compound 1]	1.56 µM	200 µM	1.6 µM	concentration dependent decrease in cellular respiration	+0.31 (±0.02) mM	+1.44 (±0.16) mM	+4.22 (±2.01) mM	+13.31 (±3.05) mM	promising bioactivity		
O=c1c(Nc2ccc(Cl)c(Cl)c2)c(NC23CC4CC(CC(C4)C2)C3)c1=O [Compound 2]	25 µM	> 200 µM		concentration dependent decrease in cellular respiration	+0.21 (±0.02) mM	+1.53 (±0.07) mM	+2.91 (±0.02) mM	+5.49 (±0.01) mM	promising bioactivity	exceeded the testing range	
O=c1c(Nc2ccc([N+](=O)[O-])cc2)c(NC23CC4CC(CC(C4)C2)C3)c1=O [Compound 4]	50 µM	> 200 µM		concentration dependent decrease in cellular respiration	+0.61 (±0.07) mM	+1.74 (±0.02) mM	+3.57 (±0.18) mM	+10.19 (±0.08) mM	promising bioactivity		> 200 µM
